“Also recorded” adds a separate entry of the source.

In experiment [1] the target is BRD4(1,2)^WT transiently expressed in HEK293T cells (Homo sapiens, UniProt O60885). The experiment in a line: In-cell labeling of tandem bromodomain. Type of experiment: cell-based. The procedure: (§1) reaction mix was taken and 8 µL of Lamelli buffer added, and the samples denatured by heating at 95 °C for 10 min. Samples were separated by gel electrophoresis on NuPAGE™ 4–12%, Bis-Tris precast polyacrylamide gels (Thermofisher). Following electrophoresis, gels were stained for 15 min with InstantBlueTM Coomasie® stain (Abcam), destained, and imaged using Bio-rad molecular imager.
(§2) Bio-rad Image Lab 6.1 was used to process the data.
(§3) In-cell target engagement
(§4) In-cell labeling by clickable probes
(§5) Transfected HEK293T cells at ~90% confluency were incubated for 1 h with a DMSO control (0.5% DMSO final concentration) or a click probe (10 µM, 0.5% DMSO final concentration) diluted in Opti- […]
(§6) Cells were then harvested and lysed using the previously described protocol above. The resulting cell lysates were diluted to 2 mg/mL using the previously described protocol above. […]
(§7) Gels were imaged for fluorescence using Bio-rad molecular imager and then stained for 15 min with InstantBlueTM Coomasie® stain (Abcam), destained, and imaged using Bio-rad molecular imager. […]
(§8) Transfected HEK293T cells at ~90% confluency were incubated for 30 min with a DMSO control or varying concentrations of OXFBD04 diluted in Opti-MEM media. […] Cells were then harvested, processed, and analysed using the previously described protocol above. […]

For experiment [2], the system named is endogenous proteins of HEK293T cells. The experiment in a line: In-cell proteome-wide selectivity of clickable probes. The format is cell-based, human. As to conditions: 10 μM probe, 1 h, live HEK293T cells expressing BRD4(1)^L94C or BRD4(1)^WT. How it is done: (§9) To evaluate proteome-wide selectivity of the clickable probes, HEK293T cells transiently expressing BRD4(1)^L94C or BRD4(1)^WT were incubated with 10 μM of probes 28–30 and 42 for 1 h before the cells were lysed and the CuAAC reaction with TAMRA-PEG3-azide was conducted (Figure 7A). […]
as §1, §2, §3, §4, §5, §6, §7

For experiment [3], the system named is T1, BRD4(1)^L94C transiently expressed in HEK293T cells.
T1 construct: the L94C mutation in the first bromodomain of BRD4 [BRD4(1)]; StrepII; expressed in transfected cells; host or cells: HEK293T
The experiment in a line: OXFBD04 (3) competition assay in cells. As to conditions: OXFBD04 30 min preincubation, then probe 10 µM for 1 h. The format is cell-based, human. The procedure:
Compound engagement with BRD4(1)^L94C was further validated by using an immunoprecipitation (IP) assay (Figure S22). Here, transfected HEK293T cells expressing StrepII-tagged BRD4(1)^L94C or StrepII-tagged BRD4(1)^WT were incubated with compound 42 before being lysed. The StrepII-tagged bromodomains were then pulled down using anti-StrepII antibodies, and the samples were separated by SDS-PAGE for analysis. […]
as §1, §2, §3
In-cell labeling by clickable probes […]
as §7, §8

The test system of experiment [4] is T2, BRD4(1)^WT transiently expressed in HEK293T cells.
T2 construct: the first bromodomain of BRD4 [BRD4(1)]; StrepII; expressed in transfected cells; host or cells: HEK293T
The experiment in a line: In-cell labeling by clickable probes, in-gel fluorescence. Type of experiment: cell-based, human. As to conditions: 10 μM probe, 1 h. The procedure:
as §9, §1, §2, §3, §4, §5
Cells were then harvested and lysed using the previously described protocol above. The resulting cell lysates were diluted to 2 mg/mL using the previously described protocol above.
Cell lysates (50 µL) were then incubated with TAMRA-PEG3-Azide (200 µM), TCEP·HCl (2 mM), TBTA (200 µM), and CuSO4 (2 mM), for 1 h at rt in the dark. Samples were then prepared and separated by gel electrophoresis using the previously described protocol above.
Gels were imaged for fluorescence using Bio-rad molecular imager and then stained for 15 min with InstantBlueTM Coomasie® stain (Abcam), destained, and imaged using Bio-rad molecular imager.
Typically, the very bottom of the gel was removed prior to imaging due to residual, unreacted, TAMRA-PEG3-Azide, which would cause oversaturation and poor image quality. […]
MEM media. Cells were then harvested and lysed using the previously described protocol above. […]

For the next experiment, the target named is T3, BRD4(1)^WT (Homo sapiens, UniProt O60885).
T3 construct: Characterization of His6-BRD4(1)WT; made in house; host or cells: E. coli BL21 (DE3)
In words: Fluorescent labeling of purified protein (CuAAC with TAMRA-PEG3-azide, in-gel fluorescence). The format is binding. As to conditions: 50 μM probe, 10 μM protein, 4 h, 37 °C, then CuAAC 1 h. The procedure:
When 28, 29, 30, and 42 were incubated with either purified BRD4(1)^L94C or BRD4(1)^WT and subjected to a copper(I)-catalyzed alkyne–azide click reaction (CuAAC) reaction with the fluorescent TAMRA-PEG3-azide dye, all clickable probes labeled the mutant protein and could be visualized using fluorescence imaging of a gel (Figure 6).
Figure 6 Clickable probes 28, 29, 30, and 42 covalently label BRD4(1)^L94C and undergo a subsequent CuAAC reaction with TAMRA-PEG3 azide to fluorescently label the protein, as shown by in-gel fluorescence imaging. Compounds 28, 29, 30, 41, and 42 (50 μM) were incubated with purified BRD4(1)^L94C or BRD4(1)^WT (10 μM) for 4 h at 37 °C, followed by CuAAC reaction with TAMRA-PEG3 azide for 1 h and separation of components by SDS-PAGE. For all compounds other than 30, only labeling of BRD4(1)^L94C was observed.
50 mM DMSO stock solutions of the compounds were serially diluted, and dispensed into wells (5 μL).
The protein-peptide mixes (7 μL) for each combination were prepared following the specified final assay concentration (Table S19), and dispensed into wells. […]
Assays were performed in 1.5 mL Eppendorf tubes at room temperature, in the dark, and gently shaken, unless otherwise stated. […] Data was analysed and processed using MassLynx. […]
Gels were imaged for fluorescence using Bio-rad molecular imager and then stained for 15 min with […]

`C#CCOc1cc(NC(=O)C=C)ccc1N1CCCC1=O` [Compound 42]: the “In-cell covalent engagement with BRD4(1,2)^WT” value in experiment [1] is recorded as “no covalent engagement”. Besides, the “Proteome-wide selectivity / off-target binding to endogenous proteins” value in experiment [2] is “exquisite proteome-wide selectivity; also recorded: almost complete selectivity”. For the same compound, the “BRD4(1)^L94C labeling by probe with increasing concentration of OXFBD04 (3)” value in experiment [3] is listed as “decreased levels”.

For `C#CCOc1ccc(-c2c(C)noc2NC(=O)C=C)cc1` [Compound 30], the “In-cell labeling of BRD4(1)^WT (fluorescent band ∼49 kDa)” value in experiment [4] is “not visible”. Further, the “Labeling of purified BRD4(1)^WT, in-gel fluorescence” value on BRD4(1)^WT is “low level”. Also, in experiment [2], the “Proteome-wide selectivity / off-target binding to endogenous proteins” value is recorded as “low cellular selectivity”. Also, in experiment [3], the “BRD4(1)^L94C labeling by probe with increasing concentration of OXFBD04 (3)” value is “concomitant reduction”.

The values above are taken from publication PMC10660337, “Mutate and Conjugate: A Method to Enable Rapid In-Cell Target Validation” (ACS Chemical Biology, 2023).
